Assay results as given in patent US20240335464A1, “ADMINISTRATION OF STING AGONIST, CHECKPOINT INHIBITORS, AND RADIATION” (Takeda Pharmaceutical Company Limited, priority 2020, published 2024).

Tested on: EMT6 mouse breast carcinoma syngeneic tumor
Test: Study 3: EMT6 orthotopic (mammary fat pad) syngeneic tumor model, time-to-progression analysis
Format: in vivo, female BALB/c mice
Protocol: Study 3: EMT6 is a mouse breast carcinoma cell line. EMT6 mouse syngeneic tumor model was generated by orthotopic inoculation with 1.0×10^6 EMT6 cells (cell suspension) in seven to eight week old female BALB/c mice (Envigo Corp., Indianapolis, IN) in the mammary fat pad. When the mean tumor volume reached approximately 110 mm^3, the animals were randomized into one vehicle control and eight treatment groups (n=8/group). Mice were then treated with Compound No. 14, anti-mouse PD-1 (anti-mPD-1) (clone RMP1-14), and/or three fraction doses of 8 Gy of Radiation (8 Gy×3), or the respective control agents (PBS, isotype control antibody, and/or mock radiation) in the following combinations over an 11-day period. • Group 1: vehicle (PBS)+isotype control+mock radiation • Group 2: Compound No. 14 (1 mg/kg)+isotype control+mock radiation • Group 3: Compound No. 14 (0.25 mg/kg)+isotype control+mock radiation • Group 4: vehicle+anti-mPD-1+mock radiation • Group 5: vehicle+isotype control+radiation (8 Gy×3) • Group 6: Compound No. 14 (1 mg/kg)+isotype control+radiation (8 Gy×3) • Group 7: vehicle+anti-mPD-1+radiation (8 Gy×3) • Group 8: Compound No. 14 (1 mg/kg)+anti-mPD-1+radiation (8 Gy×3) • Group 9: Compound No. 14 (0.25 mg/kg)+anti-mPD-1+radiation (8 Gy×3)
Tumor growth and body weight were measured three times per week during the treatment and post-treatment periods. Mice were humanely euthanized once they had reached their humane endpoint. Mice with complete regressions were evaluated until day 74 or day 108.
Study 3: A 0.1 mg/mL stock solution of Compound No. 14 was formulated in PBS and administered IV based on exact animal body weight on each day of treatment, using a dosing volume of 10 mL/kg body weight. Final doses received were 0.25 mg/kg or 1.0 mg/kg. Compound No. 14 was administered on a Q3D schedule for 3 doses (Days 12, 15 and 18) in single agent treatment group and in combination treatment groups. Dose formulation of Compound No. 14 was prepared once and utilized for all three dosing days.
Formulated anti-mPD-1 and isotype control were stored at 4 degree Celsius until subsequent dosing on Days 15 and 18. Anti-mPD-1 or isotype control was administered concurrent with Compound No. 14 or vehicle control on a Q3D schedule for 3 doses (Days 12, 15 and 18) in single agent treatment groups and in combination treatment groups.
Radiation treatment for Study 3 was performed using focal beam radiation with volumetric image guidance from computed tomography scans SARRP (Small Animal Radiation Research Platform) irradiator (Xstrahl Inc. Suwanee, Ga). Animals received 2.42 Gy/min of radiation and approximately 3.3 min was needed to reach 8 Gy dose delivery. Animals received 8 Gy radiation on days 8, 9 and 10, with the last radiation dose given two days prior to the initiation of dosing with Compound No. 14 and/or anti-mPD-1 or relevant controls on Day 12. Animals were anesthetized during imaging and radiation treatment using 1-2% Isoflurane. For repeated daily radiation treatments, the same treatment plan was applied and adjusted for changes in animal positioning or target alteration over time.
Tumors were measured three times weekly using vernier calipers. Tumor volumes were calculated using standard equation: V=W^2×L/2, where V=volume, W=width, and L=length for the tumor. When mean tumor volumes reached approximately 60 mm^3 for Study 1, 75 mm^3 for Study 2, and 110 mm^3 for Study 3, mice were randomized into eight groups (n=10/group) in Studies 1 and 2, and nine groups (n=8/group) in Study 3. These groups were then dosed with vehicle (PBS), Compound No. 14, Radiation, anti-mPD-1 or isotype control, or combinations of these agents as described in Tables 1a, 2a, and 3a. Tumor size and body weight were measured three times a week for the duration of each study. […]

## Nc1ncnc2c1ncn2[C@@H]1O[C@@H]2COP(=O)(S)O[C@@H]3[C@H](O)[C@@H](COP(=O)(S)O[C@H]2[C@H]1F)O[C@H]3n1cc(F)c2c(=O)[nH]cnc21 (stereo partly shown) [Compound No. 14]
Combination Gr 6 [Compound No. 14 (1 mg/kg) + isotype control + radiation (8 Gy × 3)] vs Gr 2 and Gr 5
  Synergy Hazard Ratio (Weibull): 0.00194
Gr 2: Compound No. 14 (1 mg/kg) + isotype control + mock radiation
  Mice remaining on study beyond day 53: no mice
Gr 2: Compound No. 14 (1 mg/kg) IV Q3D×3 + isotype control + mock radiation, TTP = tumor volume reaching 1000 mm^3
  HR (Weibull), time to progression, pairwise comparison to vehicle group (Gr 1): 0.485
Gr 3: Compound No. 14 (0.25 mg/kg) IV Q3D×3 + isotype control + mock radiation
  HR (Weibull), time to progression, pairwise comparison to vehicle group (Gr 1): 0.37
Gr 6: Compound No. 14 (1 mg/kg) + isotype control + radiation (8 Gy×3)
  HR (Weibull), time to progression, pairwise comparison to vehicle group (Gr 1): 0.00091
Group 6: Compound No. 14 (1 mg/kg) + isotype control + 8 Gy×3 Radiation, n=8/group
  Mice remaining on study as tumor-free survivors at end of study (Day 108): 5 mice
Group 6: Compound No. 14 (1 mg/kg) and 8 Gy×3 Radiation with isotype control
  Combination effect on TTP (synergy, in words): Statistically significant synergy
